Test results reported in ChEMBL document CHEMBL1921770, “Synthesis and structure-activity relationship (SAR) of (5,7-disubstituted 3-phenylsulfonyl-pyrazolo[1,5-a]pyrimidin-2-yl)-methylamines as potent serotonin 5-HT(6) receptor (5-HT(6)R) antagonists” (J Med Chem, 2011).
Each block holds one compound with its values, some of them ahead of it. The source made the active and inactive calls. The rule behind the calls is not given here.

Assays:
[1] = target: T1, 5-hydroxytryptamine receptor 6 (Homo sapiens, UniProt P50406); assay: Inhibition of human recombinant 5-HT6 receptor expressed in human HEK293 cells assessed as inhibition of serotonin-induced cAMP accumulation; format: functional, cell-based
[2] = target: T2, 5-hydroxytryptamine receptor 2C (Homo sapiens) (UniProt P28335); assay: Inhibition of serotonin 5-HT2C receptor at 1 uM by ligand displacement assay
T2 sequence (whole entry): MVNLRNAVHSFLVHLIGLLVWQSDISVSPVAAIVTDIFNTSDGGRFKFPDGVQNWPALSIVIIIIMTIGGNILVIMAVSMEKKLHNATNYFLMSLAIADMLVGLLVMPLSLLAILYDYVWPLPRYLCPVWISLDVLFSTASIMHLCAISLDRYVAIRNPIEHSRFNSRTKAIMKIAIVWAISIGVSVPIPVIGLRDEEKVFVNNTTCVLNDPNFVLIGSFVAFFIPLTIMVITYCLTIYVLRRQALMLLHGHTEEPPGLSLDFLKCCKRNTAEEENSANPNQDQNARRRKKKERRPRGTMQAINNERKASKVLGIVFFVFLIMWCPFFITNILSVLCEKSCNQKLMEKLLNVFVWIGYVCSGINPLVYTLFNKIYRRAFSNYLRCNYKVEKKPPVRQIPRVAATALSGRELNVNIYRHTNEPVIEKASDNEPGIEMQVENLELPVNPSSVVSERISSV

[3] = target: T1, 5-hydroxytryptamine receptor 6; assay: Antagonist activity at human recombinant 5-HT6 receptor expressed in human HEK293 cells assessed as inhibition of serotonin-induced cAMP accumulation; format: functional, cell-based; details: read-out: pA2 (converted)
[4] = target: Histamine H1 receptor (Homo sapiens) (UniProt P35367); assay: Inhibition of histamine H1 receptor at 1 uM by ligand displacement assay
[5] = target: D(2) dopamine receptor (Homo sapiens) (UniProt P14416); assay: Inhibition of dopamine D2S receptor at 1 uM by ligand displacement assay
[6] = target: Histamine H2 receptor (Homo sapiens) (UniProt P25021); assay: Inhibition of histamine H2 receptor at 1 uM by ligand displacement assay
[7] = Inhibition of adrenergic beta receptor at 1 uM by ligand displacement assay
[8] = target: 5-hydroxytryptamine receptor 2B (Homo sapiens) (UniProt P41595); assay: Displacement of[3H]lysergic acid […] 5-HT2B receptor at 1 uM by ligand displacement assay
[9] = target: Muscarinic acetylcholine receptor M2 (Homo sapiens) (UniProt P08172); assay: Inhibition of muscarinic M2 receptor at 1 uM by ligand displacement assay
[10] = target: Muscarinic acetylcholine receptor M1 (Homo sapiens) (UniProt P11229); assay: Inhibition of muscarinic M1 receptor at 1 uM by ligand displacement assay
[11] = target: 5-hydroxytryptamine receptor 1A (Homo sapiens) (UniProt P08908); assay: Inhibition of serotonin 5-HT1A receptor at 1 uM by ligand displacement assay
[12] = target: 5-hydroxytryptamine receptor 7 (Homo sapiens) (UniProt P34969); assay: Inhibition of serotonin 5-HT7 receptor at 1 uM by ligand displacement assay
[13] = target: Muscarinic acetylcholine receptor M4 (Homo sapiens) (UniProt P08173); assay: Inhibition of muscarinic M4 receptor at 1 uM by ligand displacement assay
[14] = target: Histamine H3 receptor (Homo sapiens) (UniProt Q9Y5N1); assay: Inhibition of histamine H3 receptor at 1 uM by ligand displacement assay
[15] = target: Voltage-gated inwardly rectifying potassium channel KCNH2 (Homo sapiens, UniProt Q12809); assay: Inhibition of human Erg at 1 uM by ligand displacement assay
[16] = target: D(4) dopamine receptor (Homo sapiens) (UniProt P21917); assay: Inhibition of dopamine D4.4 receptor at 1 uM by ligand displacement assay
[17] = target: Muscarinic acetylcholine receptor M3 (Homo sapiens) (UniProt P20309); assay: Inhibition of muscarinic M3 receptor at 1 uM by ligand displacement assay
[18] = target: 5-hydroxytryptamine receptor 5A (Homo sapiens) (UniProt P47898); assay: Inhibition of serotonin 5-HT5A receptor at 1 uM by ligand displacement assay
[19] = target: T1, 5-hydroxytryptamine receptor 6; assay: Displacement of[3H]lysergic acid […] from 5-HT6 receptor at 1 uM by ligand displacement assay
[20] = target: D(3) dopamine receptor (Homo sapiens) (UniProt P35462); assay: Inhibition of dopamine D3 receptor at 1 uM by ligand displacement assay
[21] = target: 5-hydroxytryptamine receptor 4 (Homo sapiens) (UniProt Q13639); assay: Inhibition of serotonin 5-HT4 receptor at 1 uM by ligand displacement assay
[22] = target: Adenosine receptor A2a (Homo sapiens) (UniProt P29274); assay: Inhibition of adenosine A2A receptor at 1 uM by ligand displacement assay
[23] = target: Adenosine receptor A3 (Homo sapiens) (UniProt P0DMS8); assay: Inhibition of adenosine A3 receptor at 1 uM by ligand displacement assay
[24] = target: D(1A) dopamine receptor (Homo sapiens) (UniProt P21728); assay: Inhibition of dopamine D1 receptor at 1 uM by ligand displacement assay
[25] = Inhibition of dopamine D4.2 receptor at 1 uM by ligand displacement assay
[26] = target: D(1B) dopamine receptor (Homo sapiens) (UniProt P21918); assay: Inhibition of dopamine D5 receptor at 1 uM by ligand displacement assay
[27] = target: Alpha-2A adrenergic receptor (Homo sapiens) (UniProt P08913); assay: Inhibition of adrenergic alpha2 receptor at 1 uM by ligand displacement assay
[28] = target: 5-hydroxytryptamine receptor 3A (Homo sapiens) (UniProt P46098); assay: Inhibition of serotonin 5-HT3 receptor at 1 uM by ligand displacement assay
[29] = target: 5-hydroxytryptamine receptor 2A (Homo sapiens) (UniProt P28223); assay: Inhibition of serotonin 5-HT2A receptor at 1 uM by ligand displacement assay
[30] = target: Adenosine receptor A2b (Homo sapiens) (UniProt P29275); assay: Inhibition of adenosine A2B receptor at 1 uM by ligand displacement assay
[31] = target: 5-hydroxytryptamine receptor 1B (Homo sapiens) (UniProt P28222); assay: Inhibition of serotonin 5-HT1B receptor at 1 uM by ligand displacement assay
[32] = target: Adenosine receptor A1 (Homo sapiens) (UniProt P30542); assay: Inhibition of adenosine A1 receptor at 1 uM by ligand displacement assay
[33] = Inhibition of adrenergic alpha1 receptor at 1 uM by ligand displacement assay
[34] = Inhibition of dopamine D4.7 receptor at 1 uM by ligand displacement assay
[35] = target: T1, 5-hydroxytryptamine receptor 6; assay: Partial agonist activity at human recombinant 5-HT6 receptor expressed in human HEK293 cells assessed as inhibition of serotonin-induced cAMP accumulation; format: functional, cell-based

T1 sequence (P50406 whole entry): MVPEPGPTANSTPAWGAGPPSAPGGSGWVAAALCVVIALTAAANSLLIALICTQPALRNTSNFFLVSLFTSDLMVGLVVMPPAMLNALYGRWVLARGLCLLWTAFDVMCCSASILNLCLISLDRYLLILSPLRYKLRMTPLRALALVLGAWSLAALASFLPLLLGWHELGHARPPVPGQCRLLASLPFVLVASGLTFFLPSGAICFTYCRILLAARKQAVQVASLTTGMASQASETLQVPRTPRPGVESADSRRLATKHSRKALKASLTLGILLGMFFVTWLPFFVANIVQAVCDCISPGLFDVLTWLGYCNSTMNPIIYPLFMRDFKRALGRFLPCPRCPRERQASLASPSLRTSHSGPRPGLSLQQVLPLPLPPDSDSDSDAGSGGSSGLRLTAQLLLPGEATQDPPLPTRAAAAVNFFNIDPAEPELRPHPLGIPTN
Sequence of Muscarinic acetylcholine receptor M3 (Homo sapiens) (P20309 whole entry, looked up): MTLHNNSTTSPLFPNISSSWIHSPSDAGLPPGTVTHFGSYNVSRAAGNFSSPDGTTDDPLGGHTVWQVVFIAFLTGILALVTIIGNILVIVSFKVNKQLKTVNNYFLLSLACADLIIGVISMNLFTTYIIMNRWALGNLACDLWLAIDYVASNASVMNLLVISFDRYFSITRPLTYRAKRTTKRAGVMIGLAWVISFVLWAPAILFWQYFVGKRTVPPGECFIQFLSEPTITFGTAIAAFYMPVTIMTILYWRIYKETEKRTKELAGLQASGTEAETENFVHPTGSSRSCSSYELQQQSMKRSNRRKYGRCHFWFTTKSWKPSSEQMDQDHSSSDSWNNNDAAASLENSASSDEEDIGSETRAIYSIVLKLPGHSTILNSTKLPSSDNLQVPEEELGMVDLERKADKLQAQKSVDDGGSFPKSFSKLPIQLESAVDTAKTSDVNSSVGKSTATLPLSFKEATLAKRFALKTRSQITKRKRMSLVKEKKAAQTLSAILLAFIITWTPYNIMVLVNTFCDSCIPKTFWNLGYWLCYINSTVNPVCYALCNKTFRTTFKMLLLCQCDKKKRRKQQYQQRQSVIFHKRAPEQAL
Sequence of Muscarinic acetylcholine receptor M1 (Homo sapiens) (P11229 whole entry): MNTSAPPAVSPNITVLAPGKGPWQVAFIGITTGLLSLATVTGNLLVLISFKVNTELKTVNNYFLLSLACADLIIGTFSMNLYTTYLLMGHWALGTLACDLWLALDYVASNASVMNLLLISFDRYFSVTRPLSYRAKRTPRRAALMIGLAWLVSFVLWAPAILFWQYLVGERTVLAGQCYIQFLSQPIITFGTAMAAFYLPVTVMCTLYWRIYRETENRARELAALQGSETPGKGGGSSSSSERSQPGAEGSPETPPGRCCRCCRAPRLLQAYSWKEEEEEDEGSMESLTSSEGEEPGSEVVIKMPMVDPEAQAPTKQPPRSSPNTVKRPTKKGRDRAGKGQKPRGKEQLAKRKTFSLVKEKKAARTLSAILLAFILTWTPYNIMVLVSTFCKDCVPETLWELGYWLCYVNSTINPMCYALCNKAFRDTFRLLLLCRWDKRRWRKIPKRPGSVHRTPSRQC
Sequence of Adenosine receptor A2b (Homo sapiens) (P29275 whole entry): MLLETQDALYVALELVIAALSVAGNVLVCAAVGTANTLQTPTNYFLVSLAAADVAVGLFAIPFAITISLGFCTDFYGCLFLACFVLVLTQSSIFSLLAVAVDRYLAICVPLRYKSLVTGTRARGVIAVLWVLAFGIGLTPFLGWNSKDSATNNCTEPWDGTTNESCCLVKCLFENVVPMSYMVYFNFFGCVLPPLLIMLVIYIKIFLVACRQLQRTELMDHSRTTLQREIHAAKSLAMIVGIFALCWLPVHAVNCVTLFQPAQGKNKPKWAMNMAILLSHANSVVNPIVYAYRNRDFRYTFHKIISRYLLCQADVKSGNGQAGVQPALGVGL
Sequence of 5-hydroxytryptamine receptor 7 (Homo sapiens) (P34969 whole entry): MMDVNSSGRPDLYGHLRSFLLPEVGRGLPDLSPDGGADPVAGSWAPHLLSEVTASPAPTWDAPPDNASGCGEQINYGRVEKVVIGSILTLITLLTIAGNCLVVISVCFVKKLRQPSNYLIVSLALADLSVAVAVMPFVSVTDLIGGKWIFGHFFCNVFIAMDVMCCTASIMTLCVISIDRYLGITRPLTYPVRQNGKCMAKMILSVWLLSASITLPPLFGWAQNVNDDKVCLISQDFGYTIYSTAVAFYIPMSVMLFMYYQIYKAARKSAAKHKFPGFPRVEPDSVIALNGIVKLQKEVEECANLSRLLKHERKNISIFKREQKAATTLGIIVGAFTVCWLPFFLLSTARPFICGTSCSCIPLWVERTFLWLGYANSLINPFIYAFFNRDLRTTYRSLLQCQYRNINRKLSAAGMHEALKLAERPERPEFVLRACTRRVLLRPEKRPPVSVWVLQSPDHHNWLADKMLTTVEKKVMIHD
Sequence of Histamine H1 receptor (Homo sapiens) (P35367 whole entry): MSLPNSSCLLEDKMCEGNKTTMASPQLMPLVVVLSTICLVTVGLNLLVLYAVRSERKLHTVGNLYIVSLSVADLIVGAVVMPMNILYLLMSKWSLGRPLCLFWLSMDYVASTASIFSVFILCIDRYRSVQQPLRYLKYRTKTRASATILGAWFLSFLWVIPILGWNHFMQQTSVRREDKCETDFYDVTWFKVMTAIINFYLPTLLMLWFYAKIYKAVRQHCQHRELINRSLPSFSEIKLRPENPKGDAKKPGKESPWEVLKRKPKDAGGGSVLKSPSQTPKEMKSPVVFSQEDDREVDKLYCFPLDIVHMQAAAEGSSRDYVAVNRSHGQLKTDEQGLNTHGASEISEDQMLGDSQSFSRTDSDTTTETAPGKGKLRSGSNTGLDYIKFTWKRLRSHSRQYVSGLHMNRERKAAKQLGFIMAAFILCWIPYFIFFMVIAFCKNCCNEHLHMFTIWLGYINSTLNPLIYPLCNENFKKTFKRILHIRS
Sequence of Voltage-gated inwardly rectifying potassium channel KCNH2 (Q12809 whole entry): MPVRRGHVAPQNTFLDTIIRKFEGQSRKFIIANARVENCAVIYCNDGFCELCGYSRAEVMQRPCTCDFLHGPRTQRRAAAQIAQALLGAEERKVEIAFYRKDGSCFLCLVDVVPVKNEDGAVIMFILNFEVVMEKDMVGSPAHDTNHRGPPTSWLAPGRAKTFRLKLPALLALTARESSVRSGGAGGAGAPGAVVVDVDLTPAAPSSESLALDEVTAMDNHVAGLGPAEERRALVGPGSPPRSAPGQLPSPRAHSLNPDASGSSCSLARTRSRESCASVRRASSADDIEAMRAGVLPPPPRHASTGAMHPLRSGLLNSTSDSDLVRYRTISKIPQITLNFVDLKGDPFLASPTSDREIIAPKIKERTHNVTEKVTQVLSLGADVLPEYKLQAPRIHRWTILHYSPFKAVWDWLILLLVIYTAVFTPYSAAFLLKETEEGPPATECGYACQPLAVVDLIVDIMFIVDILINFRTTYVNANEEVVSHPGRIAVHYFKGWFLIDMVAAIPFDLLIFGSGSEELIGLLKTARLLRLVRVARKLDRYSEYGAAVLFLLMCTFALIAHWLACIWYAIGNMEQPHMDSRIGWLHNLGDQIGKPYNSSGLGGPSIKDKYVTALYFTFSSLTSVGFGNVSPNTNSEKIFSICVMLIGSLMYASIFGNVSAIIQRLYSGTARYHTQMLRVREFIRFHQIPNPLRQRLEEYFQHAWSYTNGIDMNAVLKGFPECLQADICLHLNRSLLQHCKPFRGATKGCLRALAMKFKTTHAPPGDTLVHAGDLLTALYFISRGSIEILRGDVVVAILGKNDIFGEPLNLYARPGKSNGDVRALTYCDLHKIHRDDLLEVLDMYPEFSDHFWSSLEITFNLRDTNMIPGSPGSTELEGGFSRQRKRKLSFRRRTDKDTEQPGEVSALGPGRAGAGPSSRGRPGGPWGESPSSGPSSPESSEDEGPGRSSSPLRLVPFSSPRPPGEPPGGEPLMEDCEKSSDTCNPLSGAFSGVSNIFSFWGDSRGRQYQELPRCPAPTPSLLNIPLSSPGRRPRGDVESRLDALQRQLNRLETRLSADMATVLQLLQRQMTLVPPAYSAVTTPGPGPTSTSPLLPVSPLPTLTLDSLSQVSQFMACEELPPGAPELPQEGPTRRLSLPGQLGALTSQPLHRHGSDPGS
Sequence of D(1B) dopamine receptor (Homo sapiens) (P21918 whole entry): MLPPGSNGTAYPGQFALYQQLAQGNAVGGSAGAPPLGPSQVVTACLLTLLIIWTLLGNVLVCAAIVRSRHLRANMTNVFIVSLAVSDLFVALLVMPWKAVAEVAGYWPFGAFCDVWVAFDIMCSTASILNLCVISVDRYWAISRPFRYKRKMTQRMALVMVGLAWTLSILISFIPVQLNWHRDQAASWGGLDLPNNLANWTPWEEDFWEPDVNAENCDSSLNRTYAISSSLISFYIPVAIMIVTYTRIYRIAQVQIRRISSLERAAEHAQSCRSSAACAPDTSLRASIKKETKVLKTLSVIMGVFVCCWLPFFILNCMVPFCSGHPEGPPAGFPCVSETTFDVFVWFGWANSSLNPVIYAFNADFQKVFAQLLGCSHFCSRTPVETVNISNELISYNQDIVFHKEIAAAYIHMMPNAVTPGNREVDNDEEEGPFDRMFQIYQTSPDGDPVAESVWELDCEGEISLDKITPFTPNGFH
Sequence of 5-hydroxytryptamine receptor 3A (Homo sapiens) (P46098 whole entry): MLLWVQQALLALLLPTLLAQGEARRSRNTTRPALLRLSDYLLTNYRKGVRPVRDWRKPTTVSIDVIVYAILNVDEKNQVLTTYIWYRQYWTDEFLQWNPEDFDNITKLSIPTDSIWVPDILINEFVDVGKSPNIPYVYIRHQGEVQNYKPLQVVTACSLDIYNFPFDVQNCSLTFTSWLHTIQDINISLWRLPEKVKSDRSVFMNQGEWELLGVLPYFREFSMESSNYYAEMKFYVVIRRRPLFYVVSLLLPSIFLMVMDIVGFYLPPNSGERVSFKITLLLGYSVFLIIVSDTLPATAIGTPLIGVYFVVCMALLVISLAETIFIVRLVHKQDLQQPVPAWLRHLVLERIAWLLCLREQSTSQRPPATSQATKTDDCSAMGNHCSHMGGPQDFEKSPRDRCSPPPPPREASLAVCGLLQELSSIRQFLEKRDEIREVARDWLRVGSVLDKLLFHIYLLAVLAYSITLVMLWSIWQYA

Ki ([1]; read-out: pKi (converted)): 347 pM
Compound: CNc1nn2c(N(C)C)cc(C)nc2c1S(=O)(=O)c1ccccc1

Ki ([1]; read-out: pKi (converted)): 18600 pM
Compound: CNc1nn2c(N)c(Cl)c(C)nc2c1S(=O)(=O)c1cccc(Cl)c1

Ki ([1]; read-out: pKi (converted)): 550 pM
Compound: CNc1nn2c(C)c(CN)c(C)nc2c1S(=O)(=O)c1cccc(Cl)c1

Ki ([1]; read-out: pKi (converted)): 16600 pM
Compound: CNc1nn2c(N3CCOCC3)cc(C)nc2c1S(=O)(=O)c1ccccc1

Ki ([1]; read-out: Ki): 112000 pM
Compound: CNc1nn2c(NCCCN(C)C)cc(C)nc2c1S(=O)(=O)c1ccccc1

Ki ([1]; read-out: pKi (converted)): 219 pM
Compound: CNc1nn2c(N)cc(C)nc2c1S(=O)(=O)c1cccc(Cl)c1

Ki ([1]; read-out: pKi (converted)): 263 pM
Compound: CNc1nn2c(C)cc(C)nc2c1S(=O)(=O)c1ccccc1

inhibition [2]: inactive
Ki ([1]; read-out: pKi (converted)): 977 pM
Compound: CNc1nn2c(C)cc(CN)nc2c1S(=O)(=O)c1ccccc1

Ki ([1]; read-out: pKi (converted)): 708 pM
Compound: CNc1nn2c(C)c(CN(C)C)c(C)nc2c1S(=O)(=O)c1ccccc1

Ki ([1]; read-out: pKi (converted)): 2090 pM
Compound: CNc1nn2c(C)c(CCN(C)C)c(C)nc2c1S(=O)(=O)c1ccccc1

Ki ([1]; read-out: pKi (converted)): 417 pM
Compound: CNc1nn2c(C)c(CN(C)C)c(C)nc2c1S(=O)(=O)c1cccc(Cl)c1

Ki ([1]; read-out: pKi (converted)): 891 pM
Compound: CNc1nn2c(C)c(CN(C)C)c(C)nc2c1S(=O)(=O)c1cccc(F)c1

Ki ([1]; read-out: Ki): 140 pM
Compound: CNc1nn2c(N)c(Cl)c(C)nc2c1S(=O)(=O)c1ccccc1

Ki ([1]; read-out: pKi (converted)): 1820 pM
Compound: CNc1nn2c(CN(C)C)cc(C)nc2c1S(=O)(=O)c1ccccc1

inhibition [2]: inactive
Ki ([1]; read-out: pKi (converted)): 525 pM
Kb [3]: 398 pM
Compound: CNc1nn2c(C)c(N)c(C)nc2c1S(=O)(=O)c1ccccc1

Ki ([1]; read-out: pKi (converted)): 69200 pM
Compound: CNc1nn2c(NCCN(C)C)cc(C)nc2c1S(=O)(=O)c1ccccc1

inhibition [4]: inactive
inhibition [5]: inactive
inhibition [6]: inactive
inhibition [2]: 50%
inhibition [7]: inactive
inhibition [8]: inactive
inhibition [9]: inactive
inhibition [10]: inactive
inhibition [11]: inactive
Ki ([1]; read-out: pKi (converted)): 302 pM
inhibition [12]: inactive
inhibition [13]: inactive
inhibition [14]: inactive
inhibition [16]: inactive
inhibition [17]: inactive
inhibition [18]: inactive
inhibition [19]: 100%
inhibition [20]: inactive
inhibition [21]: inactive
inhibition [22]: inactive
inhibition [23]: inactive
inhibition [24]: inactive
inhibition [25]: inactive
inhibition [26]: inactive
inhibition [27]: inactive
inhibition [28]: inactive
inhibition [29]: inactive
inhibition [30]: inactive
inhibition [31]: inactive
Kb [3]: 501 pM
inhibition [32]: inactive
inhibition [33]: inactive
inhibition [34]: inactive
Compound: CNc1nn2c(N)cc(C)nc2c1S(=O)(=O)c1ccccc1
inhibition (INH) [15]: Not Active

Ki ([1]; read-out: pKi (converted)): 646 pM
Compound: CNc1nn2c(C)c(CN)c(C)nc2c1S(=O)(=O)c1ccccc1

Ki ([1]; read-out: pKi (converted)): 1860 pM
Compound: CNc1nn2c(CN)cc(C)nc2c1S(=O)(=O)c1ccccc1

Ki ([1]; read-out: Ki): 850 pM
Compound: CSc1nn2c(N3CCNCC3)c3c(nc2c1S(=O)(=O)c1ccccc1)CCC3

Ki ([1]; read-out: pKi (converted)): 4680 pM
Compound: CNc1nn2c(C)c(NC(C)=O)c(C)nc2c1S(=O)(=O)c1ccccc1

Ki [35]: 33900 pM
Compound: CNc1nn2c(CCN(C)C)cc(C)nc2c1S(=O)(=O)c1ccccc1

Ki ([1]; read-out: pKi (converted)): 22400 pM
Compound: CNc1nn2c(N(C)CCN(C)C)cc(C)nc2c1S(=O)(=O)c1ccccc1

Ki ([1]; read-out: pKi (converted)): 575 pM
Compound: CNc1nn2c(NC)cc(C)nc2c1S(=O)(=O)c1ccccc1

Ki [35]: 3090 pM
Kb [3]: 3980 pM
Compound: CNc1nn2c(CCN)cc(C)nc2c1S(=O)(=O)c1ccccc1

inhibition [2]: inactive
Ki ([1]; read-out: pKi (converted)): 209 pM
Compound: CNc1nn2c(C)c(N(C)C)c(C)nc2c1S(=O)(=O)c1ccccc1
